How the values were obtained:
Format in all cases: cell-based, human
PAR-1 (SPAN-12) = assay: Flow cytometry, PAR-1 thrombin receptor expression (SPAN-12)
Protocol: (§1) Venous blood (8 ml) is collected in a plastic tube containing 2 ml of acid-citrate-dextrose (ACD) (7.3 g citric acid, 22.0 g sodium citrate.2H2O and 24.5 glucose in 1000 ml distilled water) and mixed well. The blood-ACD mixture is centrifuged at 1000 r.p.m. for 10 minutes at room temperature. The upper ⅔ of the platelet-rich plasma (PRP) is then collected and adjusted to pH=6.5 by adding ACD. The PRP is then centrifuged at 3000 r.p.m. for 10 minutes. The supernatant is removed and the platelet pellet is gently resuspended in 4 cc of the washing buffer (10 mM Tris/HCl, 0.15 M NaCl, 20 mM EDTA, pH=7.4). Platelets are washed in the washing buffer, and in TBS (10 mM Tris, 0.15 M NaCl, pH=7.4). All cells are then divided into the appropriate number of tubes. By way of example, if 9 different surface markers are evaluated, as described herein, then the cells should be divided into ten tubes, such that nine tubes containing washed platelets are incubated with 5 μl fluorescein isothiocyanate (FITC)-conjugated antibodies in the dark at +4° C. for 30 minutes, and one tube remains unstained and serves as a negative control. Surface antigen expression is measured with monoclonal murine anti-human antibodies, such as CD9 (p24); CD41a (IIb/IIIa, aIIbb3); CD42b (Ib); CD61(IIIa) (DAKO Corporation, Carpinteria, Calif.); CD49b (VLA-2, or a2b1); CD62p (P-selectin); CD31 (PECAM-1); CD 41b (IIb); and CD51/CD61 (vitronectin receptor, avb3) (PharMingen, San Diego Calif.), as the expression of these antigens on the cells is associated with platelet activation. After incubation, the cells are washed with TBS and resuspended in 0.25 ml of 1% paraformaldehyde. Samples are stored in the refrigerator at +4° C., and analyzed on a Becton Dickinson FACScan flow cytometer with laser output of 15 mw, excitation at 488 nm, and emission detection at 530±30 nm. The data can be collected and stored in list mode, and then analyzed using CELLQuest® software. FACS procedures are described in detail in, e.g., Gurbel, P. A. et al., J Amer Coll Cardiol 31: 1466-1473 (1998); Serebruany, V. L. et al., Am Heart J 136: 398-405 (1998); Gurbel, P. A. et al., Coron Artery Dis 9: 451-456 (1998) and Serebruany, V. L. et al., Arterioscl Thromb Vasc Biol 19: 153-158 (1999).
(§2) Four cc of blood is collected in a tube, containing 2 cc of acid-citrate-dextrose (ACD; 7.3 g citric acid, 22.0 g sodium citrate.2H2O and 24.5 glucose in 1000 ml distilled water) and mixed well. The buffer, TBS (10 mM Tris, 0.15 M NaCl, pH 7.4) and the following fluorescein isothiocyanate (FITC) conjugated monoclonal antibodies (PharMingen, San Diego, Calif., USA, and DAKO, Calif., USA) are removed from a refrigerator and allowed to warm at room temperature (RT) prior to their use. The non-limiting examples of antibodies that can be used include CD41 (IIb/IIIa), CD31 (PECAM-1), CD62p (P-selectin), and CD51/61 (Vitronectin receptor). For each subject, six amber tubes (1.25 ml) are one Eppendorf tube (1.5 ml) are obtained and marked appropriately 450 μl of TBS buffer is pipetted to the labeled Eppendorf tube. A patient's whole blood tube is inverted gently twice to mix, and 50 μl of whole blood is pipetted to the appropriately labeled Eppendorf tube. The Eppendorf tube is capped and the diluted whole blood is mixed by inverting the Eppendorf tube gently two times, followed by pipetting 50 μl of diluted whole blood to each amber tube. […] The samples are analyzed on a Becton Dickinson FACScan flow cytometer. […]

[1] = tested on: vitronectin receptor (CD51/CD61); assay: Flow cytometry, platelet surface expression of CD51/61
Protocol: as §1, §2

platelets [2] = assay: Conventional platelet aggregation induced by collagen
Protocol: Trisodium citrate (3.8%) and whole blood is immediately mixed in a 1:9 ratio, and then centrifuged at 1200 g for 2.5 minutes, to obtain platelet-rich plasma (PRP), which is kept at room temperature for use within 1 hour for platelet aggregation studies. Platelet count is determined in each PRP sample with a Coulter Counter ZM (Coulter Co., Hialeah, Fla.). Platelet numbers are adjusted to 3.50×10^8/ml for aggregation with homologous platelet-poor plasma. PRP and whole blood aggregation tests are performed simultaneously. Whole blood is diluted 1:1 with the 0.5 ml PBS, and then swirled gently to mix. The cuvette with the stirring bar is placed in the incubation well and allowed to warm to 37° C. for 5 minutes. Then the samples are transferred to the assay well. An electrode is placed in the sample cuvette. […] All agonists are obtained, e.g., from Chronolog Corporation (Hawertown, Pa.). Platelet aggregation studies are performed using a Chrono-Log Whole Blood Lumi-Aggregometer (model 560-Ca). Platelet aggregability is expressed as the percentage of light transmittance change from baseline using platelet-poor plasma as a reference at the end of recording time for plasma samples, or as a change in electrical impedance for whole blood samples. Aggregation curves are recorded for 4 minutes and analyzed according to internationally established standards using Aggrolink® software.
(§3) The effect of doses (15 μg/ml to 90 μg/ml) of Compound A on in vitro platelet characteristics in subjects with multiple factors for vascular disease was tested.
(§4) The in vitro effects of pre-incubation with escalating concentrations of Compound A on platelet aggregation, and expression of major surface receptors by flow cytometry, were assessed in 20 aspirin naïve volunteers with multiple risk factors for vascular disease.

[3] = tested on: platelet-monocyte microparticles (CD14+CD151); assay: Flow cytometry, formation of platelet-monocyte microparticles
Protocol: as §1, §2

PECAM-1 (CD31) = assay: Flow cytometry, platelet surface expression of CD31
Protocol: as §1, §2

platelets [4] = assay: Conventional platelet aggregation induced by ADP
Protocol: Trisodium citrate (3.8%) and whole blood is immediately mixed in a 1:9 ratio, and then centrifuged at 1200 g for 2.5 minutes, to obtain platelet-rich plasma (PRP), which is kept at room temperature for use within 1 hour for platelet aggregation studies. Platelet count is determined in each PRP sample with a Coulter Counter ZM (Coulter Co., Hialeah, Fla.). Platelet numbers are adjusted to 3.50×10^8/ml for aggregation with homologous platelet-poor plasma. PRP and whole blood aggregation tests are performed simultaneously. Whole blood is diluted 1:1 with the 0.5 ml PBS, and then swirled gently to mix. The cuvette with the stirring bar is placed in the incubation well and allowed to warm to 37° C. for 5 minutes. Then the samples are transferred to the assay well. An electrode is placed in the sample cuvette. Platelet aggregation is stimulated with 5 μM ADP, 1 μg/ml collagen, and 0.75 mM arachidonic acid. All agonists are obtained, e.g., from Chronolog Corporation (Hawertown, Pa.). Platelet aggregation studies are performed using a Chrono-Log Whole Blood Lumi-Aggregometer (model 560-Ca). Platelet aggregability is expressed as the percentage of light transmittance change from baseline using platelet-poor plasma as a reference at the end of recording time for plasma samples, or as a change in electrical impedance for whole blood samples. Aggregation curves are recorded for 4 minutes and analyzed according to internationally established standards using Aggrolink® software.
as §3, §4

PAR-1 (WEDE15) = assay: Flow cytometry, PAR-1 thrombin receptor expression (WEDE15)
Protocol: as §1, §2

CD41a = assay: Flow cytometry, platelet surface expression of CD41a
Protocol: as §1, §2

`CC(C)(Sc1cc(C(C)(C)C)c(O)c(C(C)(C)C)c1)Sc1cc(C(C)(C)C)c(OC(=O)CCC(=O)O)c(C(C)(C)C)c1` [Compound A] was tested, and the “Flow cytometry PAR-1 (SPAN-12)” value (PAR-1 (SPAN-12); preincubation 15 μg/mL) was 25.0 ± 4.2, the “Flow cytometry PAR-1 (SPAN-12)” value (PAR-1 (SPAN-12); preincubation 30 μg/mL) was 23.9 ± 3.8 and the “Flow cytometry PAR-1 (SPAN-12)” value (PAR-1 (SPAN-12); preincubation 60 μg/mL) was 24.4 ± 2.8. For the same compound, the “Flow cytometry PAR-1 (SPAN-12)” value (PAR-1 (SPAN-12); preincubation 90 μg/mL) was 19.4 ± 3.5, the “PAR-1 thrombin receptor expression, intact epitope” value (PAR-1 (SPAN-12); pretreated samples) was “reduced” and the “vitronectin receptor (CD51/CD61)” value [1] was “little or no effect”. For the same compound, the “Flow cytometry CD51/61” value ([1]; preincubation 15 μg/mL) was 10.9 ± 2.1, the “Flow cytometry CD51/61” value ([1]; preincubation 30 μg/mL) was 11.4 ± 1.6 and the “Flow cytometry CD51/61” value ([1]; preincubation 60 μg/mL) was 11.8 ± 2.1. For the same compound, the “Flow cytometry CD51/61” value ([1]; preincubation 90 μg/mL) was 10.2 ± 1.7, the collagen-induced aggregation (platelets [2]) was “little or no effect” and the “Conventional platelet aggregation, Collagen 5 μg/ml” value (platelets [2]; preincubation 15 μg/mL) was 64.95 ± 5.1%. The “Conventional platelet aggregation, Collagen 5 μg/ml” value (platelets [2]; preincubation 30 μg/mL) was 65.6 ± 8.7%, the “Conventional platelet aggregation, Collagen 5 μg/ml” value (platelets [2]; preincubation 60 μg/mL) was 66.6 ± 6.8% and the “Conventional platelet aggregation, Collagen 5 μg/ml” value (platelets [2]; preincubation 90 μg/mL) was 65.5 ± 6.0%. The “Flow cytometry CD151 + 14” value ([3]; preincubation 15 μg/mL) was 131.4 ± 11.8, the “Flow cytometry CD151 + 14” value ([3]; preincubation 30 μg/mL) was 107.6 ± 15.4 and the “Flow cytometry CD151 + 14” value ([3]; preincubation 60 μg/mL) was 98.7 ± 12.9. For the same compound, the “Flow cytometry CD151 + 14” value ([3]; preincubation 90 μg/mL) was 97.9 ± 10.8, the “Formation of platelet-monocyte microparticles (CD14+CD151)” value ([3]; pretreated samples) was “reduced” and the “Flow cytometry CD31” value (PECAM-1 (CD31); preincubation 15 μg/mL) was 58.4 ± 5.7. For the same compound, the “Flow cytometry CD31” value (PECAM-1 (CD31); preincubation 30 μg/mL) was 57.8 ± 6.5, the “Flow cytometry CD31” value (PECAM-1 (CD31); preincubation 60 μg/mL) was 55.8 ± 7.1 and the “Flow cytometry CD31” value (PECAM-1 (CD31); preincubation 90 μg/mL) was 50.9 ± 8.9. The “Surface platelet expression of PECAM-1 (CD31)” value (PECAM-1 (CD31); pretreated samples) was “decreased”, the “Conventional platelet aggregation, ADP 5 μM” value (platelets [4]; preincubation 15 μg/mL) was 39.95 ± 11.9% and the “Conventional platelet aggregation, ADP 5 μM” value (platelets [4]; preincubation 30 μg/mL) was 40.4 ± 6.9%. The “Conventional platelet aggregation, ADP 5 μM” value (platelets [4]; preincubation 60 μg/mL) was 42.05 ± 7.2%, the “Conventional platelet aggregation, ADP 5 μM” value (platelets [4]; preincubation 90 μg/mL) was 42.65 ± 6.3% and the “platelet aggregation induced by ADP” value (platelets [4]; pretreatment of blood samples with 15-30-60-90 μg/ml) was “uniformed significant inhibition”. The “Flow cytometry PAR-1 (WEDE15)” value (PAR-1 (WEDE15); preincubation 15 μg/mL) was 40.6 ± 5.5, the “Flow cytometry PAR-1 (WEDE15)” value (PAR-1 (WEDE15); preincubation 30 μg/mL) was 36.1 ± 4.7 and the “Flow cytometry PAR-1 (WEDE15)” value (PAR-1 (WEDE15); preincubation 60 μg/mL) was 37.7 ± 5.5. The “Flow cytometry PAR-1 (WEDE15)” value (PAR-1 (WEDE15); preincubation 90 μg/mL) was 34.3 ± 5.2, the “PAR-1 thrombin receptor expression, active epitope” value (PAR-1 (WEDE15); pretreated samples) was “reduced” and the “Flow cytometry CD41a” value (CD41a; preincubation 15 μg/mL) was 185.3 ± 21.3. For the same compound, the “Flow cytometry CD41a” value (CD41a; preincubation 30 μg/mL) was 170.3 ± 16.7, the “Flow cytometry CD41a” value (CD41a; preincubation 60 μg/mL) was 165.5 ± 16.7 and the “Flow cytometry CD41a” value (CD41a; preincubation 90 μg/mL) was 160.9 ± 23.2. For the same compound, the “Surface platelet expression of GP IIb/IIIa (CD41a) antigen” value (CD41a; pretreated samples) was “decreased”.

Reference: patent publication US20070213303A1, “Methods for reducing platelet activation and for the treatment of thrombotic events” (priority 2005, published 2007)
